Here are results for seven molecules from patent US20250230193A1, “CYCLIC COMPOUND HAVING SELECTIVE KRAS INHIBITORY EFFECT ON HRAS AND NRAS” (CHUGAI SEIYAKU KABUSHIKI KAISHA, priority 2022, published 2025).

Structures are written as SMILES. Where a SMILES comes first, the peptide text is derived from it. Bridges are numbered along the chain shown (N, C = ends). [ ]: non-standard residue; d: D form. The star is where a group is joined. hPhe(3-Cl-4-CF3) = N[C@@H](CCc1ccc(C(F)(F)F)c(Cl)c1)C(=O)O; NPrPhe(4-CF3) = CCCN[C@@H](Cc1ccc(C(F)(F)F)cc1)C(=O)O; NMeGly(cPent) = CN[C@H](C(=O)O)C1CCCC1; Pro(4,4-F2) = O=C(O)[C@@H]1CC(F)(F)CN1; NMeD = CN[C@@H](CC(=O)O)C(=O)O; NMeL = CN[C@@H](CC(C)C)C(=O)O; Morpholide = C1CN(*)CCO1; NMeA = CN[C@@H](C)C(=O)O; Aze = O=C(O)[C@@H]1CCN1; Ac4c = NC1(C(=O)O)CCC1; Sar = CNCC(=O)O

Experiment [1] addresses GDP-bound HRAS wild-type protein (Homo sapiens, UniProt P01112). Kind of experiment: Binding to HRAS by surface plasmon resonance (SPR), Single Cycle Kinetics. Background: Surface plasmon resonance follows binding to a sensor surface in real time, without labels.
For experiment [2], the target named is GDP-bound NRAS wild-type protein (Homo sapiens, UniProt P01111). Kind of experiment: Binding to NRAS by surface plasmon resonance (SPR), Single Cycle Kinetics.
[3] abbreviates: KD ratio HRAS/KRAS, class symbols.
[4] abbreviates: KD ratio NRAS/KRAS, class symbols.

GDP-bound NRAS wild-type protein, sequence (P01111 whole entry): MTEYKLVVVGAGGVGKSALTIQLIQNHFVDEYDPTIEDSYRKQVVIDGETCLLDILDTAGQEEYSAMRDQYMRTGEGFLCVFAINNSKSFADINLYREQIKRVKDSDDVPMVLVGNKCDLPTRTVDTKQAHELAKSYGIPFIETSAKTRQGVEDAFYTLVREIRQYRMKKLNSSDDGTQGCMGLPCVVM
GDP-bound HRAS wild-type protein, sequence (P01112 whole entry): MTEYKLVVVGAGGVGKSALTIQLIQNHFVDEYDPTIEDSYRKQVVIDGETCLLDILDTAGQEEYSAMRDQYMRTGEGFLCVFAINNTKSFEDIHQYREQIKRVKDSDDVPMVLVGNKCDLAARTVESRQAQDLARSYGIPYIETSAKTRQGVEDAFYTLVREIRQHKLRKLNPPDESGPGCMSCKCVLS

On to `CCO[C@@H]1C[C@H]2C(=O)NC3(CC(C)(C)C3)C(=O)N(C)[C@@H](C(CC)CC)C(=O)N(C)[C@H](C(=O)N(C)C)CC(=O)N(C)[C@@H](CC3CCC3)C(=O)N[C@@H]([C@@H](C)CC)C(=O)N(C)CC(=O)N(C)[C@H]3C/C=C\CCN(C3=O)[C@@H](Cc3ccc(C)cc3)C(=O)N(C)CC(=O)N[C@@H](CCc3ccc(Cl)c(Cl)c3)C(=O)N2C1` [PP2120], for which, in experiment [1] (SPR, GDP-bound HRAS wild-type vs GDP-bound KRAS wild-type), the “HRAS/KRAS (ratio of KD value with respect to HRAS to KD value with respect to KRAS)” value was “A (a compound having 10 or more and less than 20 is denoted as A)”. Also, the “NRAS/KRAS (ratio of KD value with respect to NRAS to KD value with respect to KRAS)” value in experiment [2] (SPR, GDP-bound NRAS wild-type vs GDP-bound KRAS wild-type) is on record as “AA (a compound having 20 or more is denoted as AA)”.
As to `CCC[C@H]1C(=O)N[C@@H]([C@@H](C)CC)C(=O)N(C)CC(=O)N(C)[C@H]2C/C=C\CCN(C2=O)[C@@H](Cc2ccc(C(F)(F)F)cc2)C(=O)N(C)CC(=O)N[C@@H](CCc2ccc(C(F)(F)F)c(OC)c2)C(=O)N2CC[C@H]2C(=O)NC2(CC(C)(C)C2)C(=O)N(C)[C@@H](C(CC)CC)C(=O)N(C)[C@H](C(=O)N(C)C)CC(=O)N1C` [PP2936], in experiment [1] (setting [3]), the “HRAS/KRAS (ratio of KD value with respect to GDP-bound HRAS wild-type protein to KD value with respect to KRAS)” value was “A (a compound having 10 or more and less than 20 is denoted as A)”. In experiment [2] (setting [4]), the “NRAS/KRAS (ratio of KD value with respect to GDP-bound NRAS wild-type protein to KD value with respect to KRAS)” value is recorded as “AA (a compound having 20 or more is denoted as AA)”.
For `CCO[C@@H]1C[C@H]2C(=O)NC3(CCC3)C(=O)N(C)[C@@H](C3CCCC3)C(=O)N(C)[C@H](C(=O)N3CCOCC3)CC(=O)N(C)[C@@H](CC3CC3)C(=O)N[C@@H]([C@@H](C)CC)C(=O)N(C)CC(=O)N(C)[C@H]3CCCCN(C3=O)[C@@H](Cc3ccc(C(F)(F)F)cc3)C(=O)N(C)CC(=O)N[C@@H](CCc3cc(F)c(C(F)(F)F)c(F)c3)C(=O)N2C1` [PP0712], in experiment [1] (KD ratio HRAS/KRAS, SPR), the “HRAS/KRAS (ratio of KD value with respect to GDP-bound HRAS wild-type protein to KD value with respect to KRAS)” value was “C (A compound having a KD ratio of 0.1 or more and less than 3 is denoted as C)”. Moreover, the “NRAS/KRAS (ratio of KD value with respect to GDP-bound NRAS wild-type protein to KD value with respect to KRAS)” value in experiment [2] (KD ratio NRAS/KRAS, SPR) is “C (A compound having a KD ratio of 0.1 or more and less than 3 is denoted as C)”.
Consider `CCCN1C(=O)[C@@H]2CCN2C(=O)[C@H](C)N(C)C(=O)[C@H]([C@@H](C)CC)NC(=O)[C@H](CC(C)C)N(C)C(=O)C[C@@H](C(=O)N2CCOCC2)N(C)C(=O)[C@H](C2CCCC2)N(C)C(=O)C2(CCC2)NC(=O)[C@@H]2CC(F)(F)CN2C(=O)[C@H](CCc2ccc(C(F)(F)F)c(Cl)c2)NC(=O)CN(C)C(=O)[C@@H]1Cc1ccc(C(F)(F)F)cc1` [PP0208] ([NMeL]I[NMeA][Aze][NPrPhe(4-CF3)][Sar][hPhe(3-Cl-4-CF3)][Pro(4,4-F2)][Ac4c][NMeGly(cPent)][NMeD]-Morpholide; lactam N-11), for which, in experiment [1] (KD ratio HRAS/KRAS, SPR), the “HRAS/KRAS (ratio of KD for GDP-bound HRAS wild-type to KD for KRAS)” value is “C (A compound having a KD ratio of 0.1 or more and less than 3 is denoted as C)”. The “NRAS/KRAS (ratio of KD for GDP-bound NRAS wild-type to KD for KRAS)” value in experiment [2] (KD ratio NRAS/KRAS, SPR) was “C (A compound having a KD ratio of 0.1 or more and less than 3 is denoted as C)”.
As to `CCC[C@H]1C(=O)N[C@@H]([C@@H](C)CC)C(=O)N(C)CC(=O)N(C)[C@H]2C/C=C\CCN(C2=O)[C@@H](Cc2ccc(C(F)(F)F)cc2)C(=O)N(C)CC(=O)N[C@@H](CCc2ccc(C(F)(F)F)c(Cl)c2)C(=O)N2CCOC[C@H]2C(=O)NC2(CC(C)(C)C2)C(=O)N(C)[C@@H](C(CC)CC)C(=O)N(C)[C@H](C(=O)N(C)C)CC(=O)N1C` [PP2929], the “HRAS/KRAS (ratio of KD value with respect to GDP-bound HRAS wild-type protein to KD value with respect to KRAS)” value in experiment [1] (setting [3]) is “A (a compound having 10 or more and less than 20 is denoted as A)”. Also, the “NRAS/KRAS (ratio of KD value with respect to GDP-bound NRAS wild-type protein to KD value with respect to KRAS)” value in experiment [2] (setting [4]) was “AA (a compound having 20 or more is denoted as AA)”.
On to `CCCOC[C@H]1C(=O)N[C@@H]([C@@H](C)CC)C(=O)N(C)CC(=O)N(C)[C@H]2C/C=C\CCN(C2=O)[C@@H](Cc2ccc(C(F)(F)F)cc2)C(=O)N(C)CC(=O)N[C@@H](CCc2ccc(C(F)(F)F)c(OC)c2)C(=O)N2C[C@H](OCC)C[C@H]2C(=O)NC2(CC(C)(C)C2)C(=O)N(C)[C@@H](C2CCCC2)C(=O)N(C)[C@H](C(=O)N(C)C)CC(=O)N1C` [PP1657], for which the “HRAS/KRAS (ratio of KD value for HRAS to KD value for KRAS)” value in experiment [1] (KD ratio, GDP-bound HRAS wild-type vs GDP-bound KRAS wild-type, SPR) was “B (a compound having 3 or more and less than 10 is denoted as B)”. The “NRAS/KRAS (ratio of KD value for NRAS to KD value for KRAS)” value in experiment [2] (KD ratio, GDP-bound NRAS wild-type vs GDP-bound KRAS wild-type, SPR) was “A (a compound having 10 or more and less than 20 is denoted as A)”.
For `CCO[C@@H]1C[C@H]2C(=O)NC3(CCC3)C(=O)N(C)[C@@H](C3CCCC3)C(=O)N(C)[C@H](C(=O)N(C)C)CC(=O)N(C)C[C@@H](C)C(=O)N[C@@H]([C@@H](C)CC)C(=O)N(C)CC(=O)N(C)[C@H]3CCCCN(C3=O)[C@@H](Cc3ccc(C(F)(F)F)cc3)C(=O)N(C)CC(=O)N[C@@H](CCc3cc(F)c(C(F)(F)F)c(F)c3)C(=O)N2C1` [PP0706], the “HRAS/KRAS (ratio of KD value with respect to GDP-bound HRAS wild-type protein to KD value with respect to KRAS)” value in experiment [1] (KD ratio HRAS/KRAS, SPR) was “B (a compound having 3 or more and less than 10 is denoted as B)”. In experiment [2] (KD ratio NRAS/KRAS, SPR), the “NRAS/KRAS (ratio of KD value with respect to GDP-bound NRAS wild-type protein to KD value with respect to KRAS)” value was “B (a compound having 3 or more and less than 10 is denoted as B)”.
